Experimental data published in PMC6473174, “Ranking Hits From Saturation Transfer Difference Nuclear Magnetic Resonance–Based Fragment Screening” (Frontiers in Chemistry, 2019).

Assays:
murine langerin [1] = target: T1, murine langerin (Mus musculus, UniProt Q8VBX4); assay: STD NMR measurements (fragment screening and epitope mapping), STD amplification factor; assay type: binding
T1 sequence (Q8VBX4 1-331): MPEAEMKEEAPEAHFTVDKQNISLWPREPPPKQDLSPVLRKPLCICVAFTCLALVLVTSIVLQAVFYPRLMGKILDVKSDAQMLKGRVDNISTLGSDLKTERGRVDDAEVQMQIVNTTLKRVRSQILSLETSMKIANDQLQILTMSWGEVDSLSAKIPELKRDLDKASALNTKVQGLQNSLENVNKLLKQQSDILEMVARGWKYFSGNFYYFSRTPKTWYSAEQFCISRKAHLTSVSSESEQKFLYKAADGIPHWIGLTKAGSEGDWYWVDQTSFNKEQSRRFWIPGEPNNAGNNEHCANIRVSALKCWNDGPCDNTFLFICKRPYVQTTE
Procedure: STD NMR experiments were performed as described elsewhere (Aretz et al., [2018]). Briefly, 10 μM murine langerin was screened against a library of 660 fragments at a ligand concentration [L] = 0.2 mM using a saturation time of tsat = 4 s. Hits were counter-screened by SPR (see the section Estimation of Affinity Using Surface Plasmon Resonance), enabling affinity estimation and hit validation. For SPR-validated hits, the STD amplification factor was determined as reported earlier (Mayer and Meyer, [2001]) and plotted against affinity (Figure 1A). For epitope mapping of thiazolopyrimidine derivatives (Figure 2E), protein concentration was [P] = 20 μM, ligand concentration was [L] = 0.5–1 mM, and tsat = 1 s. Affinity of all derivatives was estimated by SPR (see the section Estimation of Affinity Using Surface Plasmon Resonance), and the STD amplification factor was determined as reported earlier for the proton in the 7-position of the thiazolopyrimidine scaffold (Mayer and Meyer, [2001]). Spectra were analyzed in MestReNova 10.0.0.

murine langerin [2] = target: T1, murine langerin; parameters: method as in Aretz et al. (2018); conditions: estimated by SPR; murine langerin on CM7 chip; 25 mM HEPES pH 7.6, 150 mM NaCl, 5 mM CaCl2, 0.005% Tween-20; ref Aretz et al. (2018); read-out: Affinity; cited from earlier work
[3] = target: Heat shock protein HSP 90-alpha (HSP90AA1; P07900); parameters: method as in Roughley and Hubbard, 2011; conditions: HSP90 fragment complexes, Figure 2; ref Roughley and Hubbard, 2011; read-out: Affinity; cited from earlier work
[4] = target: cAMP and cAMP-inhibited cGMP 3',5'-cyclic phosphodiesterase 10A (PDE10A; Q9Y233); parameters: method as in Recht et al., 2014; conditions: PDE10A fragment complexes, Figure 2; ref Recht et al., 2014; read-out: Affinity; cited from earlier work
[5] = target: Beta-lactamase (ampC; P00811); conditions: read-out: Affinity; AmpC fragment complexes, Figure 2; ref Barelier et al., 2014; cited from earlier work
[6] = target: Glycogen synthase kinase-3 beta (GSK3B; P49841); conditions: GSK3b complex PDB 4J71, Figure S4; read-out: Affinity; cited from earlier work
[7] = Figure 1a fragment screening, [P] = 10 μM, [L] = 0.2 mM, tsat = 4 s

Row | SMILES | STD amplification factor (murine langerin [1]; [7]) | Kd (murine langerin [2]) | other results
1 | CC(=O)c1ccn(S(=O)(=O)c2ccccc2)c1 [S36] | 44 | 19 ± 1 mM | 
2 | CCC(=O)c1ccc(O)cc1O [CHEMBL539379] |  |  | Kd [3]: 0.57 mM
3 | CCNCc1cc(O)ccc1Br [S59] | 13 | 2 ± 0.3 mM | 
4 | CN(C)C(=O)Oc1cccc(C(=O)O)c1 [S22] | 24 | ~4 mM | 
5 | NC(=O)c1ccccc1N [CHEMBL43175] |  |  | Kd [3]: > 0.4 mM
6 | O=c1c(-c2ccn[nH]2)cnc2sccn12 [compound 1] | 16 | 0.8 ± 0.1 mM | STD amplification factor (murine langerin [1]; Figure 2e thiazolopyrimidine SAR, proton in 7-position, [P] = 20 μM, [L] = 0.5–1 mM, tsat = 1 s): 1.8
7 | COC(=O)c1cc2c(s1)CCC2 [S65] | 43 | 4.5 ± 0.7 mM | 
8 | O=C(Nc1ccccc1O)c1cccnc1Cl [S60] | 24 | 2.4 ± 0.1 mM | 
9 | Cc1nc2ccccc2c(=O)[nH]1 [CHEMBL395092] |  |  | Kd [4]: 0.99 mM
10 | CCC(C)(C(=O)O)c1cccs1 (stereo not shown) [S21] | 13 | 3.3 ± 0.2 mM | 
11 | Cn1cc(CC(=O)O)c2ccccc21 [S53] | 37 | 3 ± 0.1 mM | 
12 | COC(=O)Cc1cc(O)cc(O)c1 [CHEMBL540934] |  |  | Kd [3]: 0.49 mM
13 | O=C1NC(=O)[C@@H]2CN(Cc3ccccc3)C[C@H]12 [S23] | 4 | 4.9 ± 0.2 mM | 
14 | Nc1ccc2sc(C(=O)O)cc2c1 [S66] | 44 | 11.6 ± 0.1 mM | 
15 | Nc1cccc2c1CN(C1CCCCC1)C2=O [S11] | 23 | 0.7 ± 0.2 mM | 
16 | O=C(O)/C=C/c1ccc2c(c1)OCCO2 [S14] | 36 | 2.2 ± 0.2 mM | 
17 | CN(C)S(=O)(=O)c1cccc(C(=O)O)c1 [S15] | 41 | 11.3 ± 3 mM | 
18 | O=C1NC(=O)C(Cc2ccncc2)S1 (stereo not shown) [S61] | 16 | 3.8 ± 0.3 mM | 
19 | Cc1ccsc1/C=C/C(=O)O [S8] | 86 | 3.4 ± 0.4 mM | 
20 | COc1cc(C(C)=O)ccc1N [S63] | 4 | 9 ± 1 mM | 
21 | CC1CCCC(C(=O)O)N1C(=O)CCS (stereo not shown) [CHEMBL331575] |  |  | Kd [5]: 0.8 mM

Row | SMILES | STD amplification factor (murine langerin [1]; [7]) | Kd (murine langerin [2]) | other results
22 | O=C(O)Cc1cccc2occc12 [S6] | 55 | 4.3 ± 0.5 mM | 
23 | COc1ccc(NS(C)(=O)=O)cc1 [S56] | 3 | 16.8 ± 3.6 mM | 
24 | CN(C)C(=O)c1csc(-c2ccccc2)n1 [S52] | 3 | 2.7 ± 0.4 mM | 
25 | COc1cc(C(=O)O)c(Br)cc1C [S42] | 79 | 5.4 ± 0.9 mM | 
26 | OCc1cc(-c2ccccc2)on1 [S58] | 19 | 2.3 ± 0.1 mM | 
27 | NC(=O)c1ccc(Cl)s1 [S18] | 21 | 3.5 ± 0.2 mM | 
28 | C[C@@H](C(=O)O)N(c1ccccc1)S(C)(=O)=O [4KZB] |  |  | Kd [5]: 1.3 mM
29 | Cc1nnc(-c2ccccc2)nc1O [S3] | 19 | 4.7 ± 0.6 mM | 
30 | COc1ccc2c(c1)C(CC(=O)O)CC2=O (stereo not shown) [S12] | 10 | 1.1 ± 0.2 mM | 
31 | CC(=O)Nc1ccc2nc(C)oc2c1 [S57] | 2 | 5.7 ± 0.4 mM | 
32 | Cc1cc(C)c(S(=O)(=O)C(C)C)c(Cl)n1 [S38] | 4 | 4.7 ± 0.7 mM | 
33 | c1ccc(-c2nnc3n2CCCC3)cc1 [S30] | 8 | 10 ± 3 mM | 
34 | COc1ccccc1/C=C1/C(=O)N=C(N)N1C [S31] | 5 | 4 ± 2 mM | 
35 | N#Cc1c(N)sc2c1CCCC2 [S13] | 33 | 1.5 ± 0.3 mM | 
36 | CCN1C(=O)CC(=O)N(CC)C1=S [CHEMBL2136061] |  |  | Kd [5]: 1.6 mM
37 | C[C@@H]1Nc2cccnc2NC1=O [CHEMBL3941552] |  |  | Kd [6]: > 3 mM
38 | CNC(=O)Nc1nnc(C(C)(C)C)s1 [S44] | 7 | 2.9 ± 0.4 mM | 
39 | O=C(O)c1cccn(Cc2ccccc2)c1=O [S55] | 10 | 24.7 ± 10.3 mM | 
40 | COC(=O)c1cc(C)c(N)c(Br)c1 [S39] | 49 | 28 ± 9 mM | 
41 | CCN1C(=O)c2ccccc2NC12CCCC2 [S37] | 2 | 13 ± 2 mM | 
42 | O=C(O)c1sccc1S(=O)(=O)NC1CC1 [4KZA] |  |  | Kd [5]: 0.2 mM
